# Laboratory results published in article PMC7402352, “Discovery of Novel Non-Steroidal Cytochrome P450 17A1 Inhibitors as Potential Prostate Cancer Agents” (International Journal of Molecular Sciences, 2020).
# “Also recorded” adds a separate entry of the source. Where two headings read alike, the source gives them in different places.
# Legend:
# human CYP17A1 [1] = target: T1, human CYP17A1 (Homo sapiens, UniProt P05093); assay: Cytochrome P450 17A1 progesterone 17α-hydroxylation inhibition assay; assay type: biochemical; details: recombinant purified CYP17A1
# T1 construct: made in house
# T1 sequence (P05093 24-508 limits assumed): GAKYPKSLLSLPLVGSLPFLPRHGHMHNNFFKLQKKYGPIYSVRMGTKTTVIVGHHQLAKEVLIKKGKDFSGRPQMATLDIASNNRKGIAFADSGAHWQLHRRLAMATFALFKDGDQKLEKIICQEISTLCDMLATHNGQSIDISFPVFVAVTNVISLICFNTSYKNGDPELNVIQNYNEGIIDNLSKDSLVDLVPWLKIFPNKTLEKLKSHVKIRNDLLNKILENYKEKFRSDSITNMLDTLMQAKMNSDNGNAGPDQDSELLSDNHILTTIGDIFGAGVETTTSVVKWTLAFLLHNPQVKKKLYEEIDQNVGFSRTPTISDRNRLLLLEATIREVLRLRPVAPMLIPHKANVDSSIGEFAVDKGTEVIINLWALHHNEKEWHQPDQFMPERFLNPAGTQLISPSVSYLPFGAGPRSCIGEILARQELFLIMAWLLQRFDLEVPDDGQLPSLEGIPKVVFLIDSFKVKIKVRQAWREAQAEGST
# Procedure: Regardless of their binding affinity, all compounds were tested for their ability to inhibit progesterone 17α-hydroxylation by recombinant purified CYP17A1 (Supplementary Materials S2).
# Purified recombinant human CYP17A1 (20 pmol) and human full-length cytochrome P450 reductase (80 pmol) were used to convert progesterone (purchased from Acros Organics, Fair Lawn, NJ, USA) (6 µM) to 17α-hydroxyprogesterone. Test inhibitors were dissolved in DMSO and initially tested in concentrations ranging from 1.3 to 41 µM. In subsequent assays the range of inhibitor concentrations was optimized to best define the IC50 of individual compounds. Reactions were run and the 17α -hydroxyprogesterone product measured by LC-MS as previously published.
# IC50 curves for compounds inhibiting CYP17A1 progesterone 17-hydroxylation (black circles),
# CYP21A2 progesterone 21-hydroxylation (red diamonds), CYP3A4 nifedipine metabolism
# (green squares), and CYP2D6 quinidine metabolism (blue triangles).
# (§1) (1 picture or pasted object on this page, not shown here)
# human CYP3A4 = target: T2, human CYP3A4 (Homo sapiens, UniProt P08684); assay: CYP3A4 nifedipine metabolism inhibition assay; assay type: biochemical; details: concentrations up to 10 µM
# T2 construct: made in house
# T2 sequence (P08684 whole entry): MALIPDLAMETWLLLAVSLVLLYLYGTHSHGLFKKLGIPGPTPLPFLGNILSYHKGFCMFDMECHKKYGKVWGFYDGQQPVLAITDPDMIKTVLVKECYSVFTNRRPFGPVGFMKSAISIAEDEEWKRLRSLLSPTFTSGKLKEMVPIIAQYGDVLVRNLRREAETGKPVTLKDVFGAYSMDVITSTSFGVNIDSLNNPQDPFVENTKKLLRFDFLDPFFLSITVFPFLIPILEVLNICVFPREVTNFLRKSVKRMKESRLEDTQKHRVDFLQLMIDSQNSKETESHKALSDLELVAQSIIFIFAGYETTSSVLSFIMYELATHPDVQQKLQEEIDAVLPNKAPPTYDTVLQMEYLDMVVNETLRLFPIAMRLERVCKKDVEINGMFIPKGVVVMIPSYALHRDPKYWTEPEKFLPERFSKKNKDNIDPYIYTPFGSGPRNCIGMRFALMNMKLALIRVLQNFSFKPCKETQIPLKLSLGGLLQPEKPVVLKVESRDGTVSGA
# Text: In human drug metabolism, CYP3A4 and CYP2D6 are dominant enzymes and undesired inhibition could potentially alter the pharmacokinetics and reduce the clearance of co-administered drugs. CYP3A4 is particularly important in this respect, with a large and flexible active site able to accommodate many different molecular scaffolds including steroids. […] The most similar steroidogenic human enzyme to CYP17A1 is CYP21A2, which also uses progesterone as a substrate, in this case to form 21-hydroxyprogesterone. Undesired inhibition of this enzyme could adversely impact the biosynthesis of the corticosteroids cortisol and aldosterone which control stress/immune responses and blood pressure, respectively. Abiraterone itself has this liability and is thus co-administered with the synthetic corticosteroid prednisone. […] However, at the same time it might be possible to achieve similar results by altering the nitrogen atom position in the pyridine fragment in compound 1e. […]
# Selected inhibitors were tested for off-target inhibition of purified recombinant human CYP3A4 nifedipine metabolism and CYP2D6 dextromethorphan metabolism as described with minor modifications. […] Inhibition of steroidogenic cytochrome P450 21A2 progesterone 21-hydroxylation was evaluated as reported. […]
# [2] = target: T3, human cytochrome P450 17A1 (Homo sapiens, UniProt P05093); assay: Spectral binding assay (CYP17A1 ligand binding); details: purified recombinant human CYP17A1, spectral titration
# T3 construct: made in house
# T3 sequence (P05093 1-508): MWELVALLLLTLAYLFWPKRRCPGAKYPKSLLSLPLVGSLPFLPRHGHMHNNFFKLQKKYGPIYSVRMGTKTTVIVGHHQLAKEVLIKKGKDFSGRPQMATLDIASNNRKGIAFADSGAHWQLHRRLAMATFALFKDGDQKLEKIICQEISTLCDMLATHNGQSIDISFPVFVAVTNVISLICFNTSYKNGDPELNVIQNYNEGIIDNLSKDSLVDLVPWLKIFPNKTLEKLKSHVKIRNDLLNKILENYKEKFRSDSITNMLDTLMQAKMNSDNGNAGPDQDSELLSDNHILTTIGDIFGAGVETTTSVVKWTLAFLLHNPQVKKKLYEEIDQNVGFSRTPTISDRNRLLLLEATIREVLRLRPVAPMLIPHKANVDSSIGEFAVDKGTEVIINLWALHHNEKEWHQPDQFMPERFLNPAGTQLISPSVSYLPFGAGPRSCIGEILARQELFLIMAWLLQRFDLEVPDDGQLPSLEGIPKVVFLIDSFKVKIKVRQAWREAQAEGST
# Text: The target compounds were initially tested for binding mode and affinity for CYP17A1 using a spectral binding assay. This assay can distinguish the mode of interaction, with a blue shift of the Soret absorbance occurring when ligand displaces water from the heme iron to generate a five-coordinate iron without direct coordination to the heme iron (type I, similar to most substrates) or a red shift of the Soret peak when the ligand nitrogen replaces the water to directly interact with the six-coordinate iron (type II, similar to many inhibitors). […] This 3-pyridyl fragment is also found in abiraterone.
# Initial ligand binding was evaluated by measuring absorbance changes in CYP17A1 upon addition of ligands. Purified recombinant human cytochrome P450 17A1 enzyme (1 µM) in buffer (25 mM potassium phosphate, pH 7.4, 200 mM NaCl, 20% glycerol) was titrated with ligands. Ligands were dissolved in DMSO and added to three concentrations (500, 1000, and 2000 nM). The spectral intensity difference (ΔA) was measured as difference between […]. The Amin was typically at ~410 nm and Amax at ~440 nm for the type II changes observed for these ligands.
# S2. Binding spectra and CYP IC50 curves
# Difference spectrum of cytochrome P450 17A1 with vs. without compound 1a (2 µM).
# All compounds are type II and display the same shift as the example above.
# as §1
# cytochrome P450 21A2 = target: T4, cytochrome P450 21A2 (Homo sapiens, UniProt P08686); assay: CYP21A2 progesterone 21-hydroxylation inhibition assay; assay type: biochemical; details: for IC50: progesterone 21-hydroxylation
# T4 construct: made in house
# T4 sequence (P08686 1-495): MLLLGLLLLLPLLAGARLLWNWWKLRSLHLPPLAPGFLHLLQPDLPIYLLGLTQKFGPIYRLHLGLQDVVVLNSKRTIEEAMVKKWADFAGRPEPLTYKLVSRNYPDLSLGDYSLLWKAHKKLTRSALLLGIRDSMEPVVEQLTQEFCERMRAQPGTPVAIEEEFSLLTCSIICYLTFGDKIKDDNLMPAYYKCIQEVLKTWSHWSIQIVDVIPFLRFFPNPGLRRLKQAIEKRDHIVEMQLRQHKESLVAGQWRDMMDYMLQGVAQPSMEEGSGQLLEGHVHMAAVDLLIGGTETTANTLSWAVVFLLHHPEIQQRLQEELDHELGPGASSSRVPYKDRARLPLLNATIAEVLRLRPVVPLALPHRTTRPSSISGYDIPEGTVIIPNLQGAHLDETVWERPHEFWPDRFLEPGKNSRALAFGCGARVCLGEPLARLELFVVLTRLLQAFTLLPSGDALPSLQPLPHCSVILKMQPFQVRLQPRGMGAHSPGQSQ
# Text: (§2) In human drug metabolism, CYP3A4 and CYP2D6 are dominant enzymes and undesired inhibition could potentially alter the pharmacokinetics and reduce the clearance of co-administered drugs. CYP3A4 is particularly important in this respect, with a large and flexible active site able to accommodate many different molecular scaffolds including steroids. […] The most similar steroidogenic human enzyme to CYP17A1 is CYP21A2, which also uses progesterone as a substrate, in this case to form 21-hydroxyprogesterone. Undesired inhibition of this enzyme could adversely impact the biosynthesis of the corticosteroids cortisol and aldosterone which control stress/immune responses and blood pressure, respectively. Abiraterone itself has this liability and is thus co-administered with the synthetic corticosteroid prednisone. […] However, at the same time it might be possible to achieve similar results by altering the nitrogen atom position in the pyridine fragment in compound 1e. Further optimization of 1c is required to eliminate off-target effects on the steroidogenic human CYP21A2 enzyme to prevent disruption of glucocorticoid and mineralocorticoid biosynthesis in vivo. This might be achieved by adding substituents compatible with the CYP17A1 active site topography forming interactions with the bordering Arg239 and/or Asp298 residues, but incompatible with the more spatially constrained CYP21A2 active site, as has been accomplished for abiraterone.
# (§3) Selected inhibitors were tested for off-target inhibition of purified recombinant human CYP3A4 nifedipine metabolism and CYP2D6 dextromethorphan metabolism as described with minor modifications. CYP3A4 nifedipine (purchased from Sigma-Aldrich, St. Louis, MO, USA) activity assays were carried out with 200 µM nifedipine for 30 min. The CYP2D6 dextrometorphan (purchased from Sigma-Aldrich, St. Louis, MO, USA) assays were carried out with 100 µM DXM. Inhibition of steroidogenic cytochrome P450 21A2 progesterone 21-hydroxylation was evaluated as reported.
# (§4) IC50 curves for compounds inhibiting CYP17A1 progesterone 17-hydroxylation (black circles), […]
# PC3 cells = assay: Prostate cancer cell line proliferation screening (GR), PC3; assay type: cell-based, human; details: 10 µM, 48 h
# Procedure: Next, we tested the effect of compounds 1a–1e on prostate cancer derived cell lines. The anti-proliferative activity was determined in vitro by adding 10 µM compound to each of three prostate cancer cell lines (LNCaP, DU145, and PC3). As an additional comparison, immortalized non-cancerous fibroblasts (BJ hTERT) were used. These cancer cell lines are considered the classic standard of PCa cell culture. Since these cell lines grew at very different rates, inhibition of growth rate (GR) was used as a metric. All compounds except 1e were non-toxic to non-cancerous cells. Compounds 1a and 1c were both cytotoxic in the PC3 cell line (Figure 3). […] DU145 cells were weakly affected by only compound 1e with growth rate inhibition more than 50% (GR < 0.5). […] We observed substantial susceptibility of PC3 cells in comparison to DU145 (see Supplementary Materials S3 for GR50 in PC3 cells). These two cell lines are similar in many respects. […] However, they differ in their origins, PC3 being derived from a lumbar vertebral metastatic prostate tumour and DU145 from a brain metastatic prostate tumour. […] By observing a uniform response of all cell lines used in the present study to 5-fluorouracil (5-FU), we were able to rule out any general cell dependent variability in chemosensitivity towards anti-metabolite treatment. Still, chemoresistance in PC3 and DU145 may be mediated by other mechanisms. While AR also functions as a tumour suppressor inhibiting cell proliferation, it is possible in AR deprived cells to observe growth inhibition when cells retain necessary coregulators. […]
# (§5) Cells were grown to approximately 80% confluence in 150 mm culture dishes and harvested by 0.25% Trypsin/EDTA (Gibco) treatment. Released cells were counted and seeded in 384 well plates (Falcon, ref. 353962) in 30 µl media with a cell count of 1500 (BJ cells, PC-3) or and 3500 (LNCaP (Lund)) cells per well. […] The cells incubated for 24 h, after which cell counts in wells of one 384-well plate were determined as described below (time zero). […]
# BJ hTERT fibroblasts = assay: Proliferation screening in non-cancerous fibroblasts; assay type: cell-based; details: 10 µM, 48 h
# Procedure: (§6) Next, we tested the effect of compounds 1a–1e on prostate cancer derived cell lines. The anti-proliferative activity was determined in vitro by adding 10 µM compound to each of three prostate cancer cell lines (LNCaP, DU145, and PC3). As an additional comparison, immortalized non-cancerous fibroblasts (BJ hTERT) were used. These cancer cell lines are considered the classic standard of PCa cell culture. Since these cell lines grew at very different rates, inhibition of growth rate (GR) was used as a metric. All compounds except 1e were non-toxic to non-cancerous cells. Compounds 1a and 1c were both cytotoxic in the PC3 cell line (Figure 3). […] DU145 cells were weakly affected by only compound 1e with growth rate inhibition more than 50% (GR < 0.5). […] We observed substantial susceptibility of PC3 cells in comparison to DU145 (see Supplementary Materials S3 for GR50 in PC3 cells). These two cell lines are similar in many respects. […]
# as §5
# CYP2D6 = target: T5, CYP2D6 (Homo sapiens, UniProt P10635); assay: CYP2D6 dextromethorphan metabolism inhibition assay; assay type: biochemical; details: for IC50: dextromethorphan metabolism
# T5 construct: made in house
# T5 sequence (P10635 whole entry): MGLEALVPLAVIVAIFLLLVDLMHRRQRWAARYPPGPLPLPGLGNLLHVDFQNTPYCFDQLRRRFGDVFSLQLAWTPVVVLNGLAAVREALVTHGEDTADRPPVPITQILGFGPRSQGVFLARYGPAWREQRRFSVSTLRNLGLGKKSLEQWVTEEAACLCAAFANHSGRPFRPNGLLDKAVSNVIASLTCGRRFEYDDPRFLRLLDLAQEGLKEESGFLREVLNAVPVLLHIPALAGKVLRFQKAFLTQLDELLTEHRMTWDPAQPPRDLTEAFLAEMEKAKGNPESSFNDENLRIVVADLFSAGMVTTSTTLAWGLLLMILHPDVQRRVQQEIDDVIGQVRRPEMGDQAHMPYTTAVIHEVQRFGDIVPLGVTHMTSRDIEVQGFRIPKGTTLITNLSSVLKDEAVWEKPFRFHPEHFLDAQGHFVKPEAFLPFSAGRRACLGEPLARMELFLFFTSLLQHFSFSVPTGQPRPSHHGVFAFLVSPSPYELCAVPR
# Text: as §2, §3, §4
# DU145 cells = assay: Prostate cancer cell line proliferation screening (GR), DU145; assay type: cell-based, human
# Procedure: as §6, §5
# human CYP17A1 [3] = target: T1, human CYP17A1; parameters: method as in PMID 28373265; details: ref [11]; cited from earlier work
# [4] = target: T3, human cytochrome P450 17A1; details: ref [10]; read-out: CYP17A1 Kd; cited from earlier work
smiles,measurement,setting,value
c1cncc(Nc2ccc(-n3cnc4ccccc43)cc2)c1 [Compound 1c],IC50,human CYP17A1 [1],0.83 ± 0.19 µM
same,IC50,human CYP3A4,> 10 µM
same,Kd,[2],0.096 ± 0.022 µM
same,IC50,cytochrome P450 21A2,1.5 ± 0.67 µM
same,Selectivity for CYP17A1 over CYP21A2 inhibition,cytochrome P450 21A2; ratio of IC50 values,two-fold
same,"Antiproliferative response in PC3 cells (growth rate inhibition, in words)",PC3 cells,cytotoxic; also recorded: high cytotoxicity
same,Toxicity to non-cancerous cells (BJ hTERT fibroblasts),BJ hTERT fibroblasts,non-toxicity
same,IC50,CYP2D6,> 10 µM
c1ccc(Nc2ccc(-n3cnc4ccccc43)cc2)cc1 [Compound 1d],IC50,human CYP17A1 [1],1.76 ± 0.19 µM
same,Kd,[2],0.15 ± 0.037 µM
c1ccc2c(c1)ccn2-c1ccc(Nc2ccncc2)cc1 [Compound 1e],IC50,human CYP17A1 [1],0.56 ± 0.1 µM
same,IC50,human CYP3A4,> 10 µM
same,Kd,[2],0.12 ± 0.034 µM
same,IC50,cytochrome P450 21A2,0.19 ± 0.03 µM
same,IC50,CYP2D6,2.5 ± 0.6 µM
same,Fold weaker inhibition of CYP2D6 than of CYP17A1,CYP2D6; ratio of IC50 values,4.5 fold
same,Growth rate inhibition value (GR) in DU145 cells,"DU145 cells; 10 µM, 48 h",< 0.5
same,inhibition at 10 µM,"DU145 cells; Homo sapiens, DU-145, 48 h, read-out: Growth rate inhibition in DU145 cells",> 50%
C[C@]12CC[C@H](O)CC1=CC[C@@H]1[C@@H]2CC[C@]2(C)C(n3cnc4ccccc43)=CC[C@@H]12 [Galeterone],IC50,human CYP17A1 [3],0.13 µM
same,Kd,[4],< 0.1 µM
